Legend:
isolated rat heart = assay: Isolated rat heart preparation (left ventricular function, coronary perfusion, oxygen extraction and consumption) after CLP or sham operation; assay type: in vivo; settings: for heart rate: mean +/- SD
Protocol: (§1) The care of the animals in this study was in accordance with NIH and Institutional Animal Care and Use Committee guidelines. Under isoflurane general anesthesia (up to 2%), 250 g male Sprague-Dawley rats (Charles River, Boston, Mass., USA) underwent cecal ligation and double puncture (CLP) with an 18-gauge needle or sham operation as previously described. All animals were administered 50 ml/kg saline subcutaneously immediately post procedure and every 24 hours. Once awake, animals were given access to food and water ad libitum.
Twenty four and 48 hours post-procedure, rats received either an intraperitoneal (i.p) injection of caffeine (7.5 mg/kg, Sigma-Aldrich, St. Louis, Mo.) or equal volume saline (1 mL). Rats were sacrificed one hour after the 48 hour injection following euthanasia with 150 mg/kg of intraperitoneal pentobarbital. Four cohorts were evaluated: SHAM saline, SHAM caffeine, CLP saline, CLP caffeine. N=5 per group. The 24-hour time point was chosen for initial intervention based on the onset of the hypodynamic phase when cardiac function begins to deteriorate and the presence of reversible CcOX inhibition. Studies were performed at the 48-hour time point because this time point represents the late phase of sepsis when cardiac function is markedly depressed and mortality is 75%.
Rats were anesthetized with intraperitoneal pentobarbital (70 mg/kg) and heparinized (1000 U IP). The heart was excised rapidly and the aorta was cannulated. Retrograde perfusion was initiated at constant flow (12 mL/g-min) with a modified Krebs-Henseleit buffer containing (mmol/L) NaCl 120, KCl 4.7, MgSO4 1.2, KH2PO4 1.2, CaCl2 1.25, NaHCO3 25, and glucose. The non-recirculating buffer was maintained at pH 7.4 equilibrated with 95% O2-5% CO2 at 37° C. Isovolumetric left ventricle pressure (LVP) was measured with a transducer connected to a saline-filled latex balloon inserted into the left ventricle through the left atrium. The balloon was inflated to maintain an end-diastolic pressure of 10 mmHg Hearts were immersed in a water-jacketed chamber maintained at 37° C. and allowed to stabilize for 30 minutes.
Heart rate, LVP, the maximum rate of positive and negative change in LVP (+/−dP/dt), and aortic pressure were collected with an analog-to-digital converter system (Power Laboratory 4SP, ADlnstruments, Castle Hill, Australia). […] Measurements were obtained at coronary flow rates (CF) of 12, 10, 8, 6, and 4 mL/g-min Coronary inflow oxygen tension (PaO2) and coronary sinus oxygen tension (PvO2) were measured (GEM Premier 3000, Instrumentation Laboratory, Belgium). Percent O2 extraction was calculated as 100×(PaO2-PvO2/PaO2). Myocardial O2 consumption (MO2) was calculated as CF/g×(PaO2-PvO2)×O2 solubility at 760 mmHg O2 solubility is 24 |il/ml H2O at 37° C. Coronary perfusion pressure was calculated as the difference between mean aortic pressure and LV end-diastolic pressure. Coronary resistance was calculated by dividing perfusion pressure by coronary flow.

[1] = tested on: cecal ligation and puncture (CLP) sepsis model; assay: Survival to 96 hours following CLP or sham operation; assay type: in vivo, rat
Protocol: as §1
The survival was followed in a separate cohort of animals in this two treatment parallel-design study to 96 hours. Each animal was injected with either caffeine (7.5 mg/kg i.p.) or equal volume of saline (1 mL i.p.) every 24 hours beginning 24 hours following CLP or sham operation. Twenty animals per group were evaluated based on the probability being 80 percent that the study will detect a treatment difference at a two-sided 5.0 percent significance level, if the true hazard ratio is 3.
Data are presented as mean +/− standard deviation. Statistical significance was assessed using ANOVA and post hoc Tukey's test with p<0.05. Statistical significance in the survival study was assessed using Kaplan-Meier survival curves and Mantel-Cox log-rank test.

[2] = tested on: cytochrome oxidase subunit I (CcOX-I); assay: Immunoblot of steady-state levels of cardiac cytochrome oxidase subunit I; assay type: in vivo, rat; settings: between all groups (SHAM/CLP, saline/caffeine), normalized to porin
Protocol: as §1
(§2) Twenty four and 48 hours post-procedure, rats received either an intraperitoneal (i.p) injection of caffeine (7.5 mg/kg, Sigma-Aldrich, St. Louis, Mo.) or equal volume saline (1 mL). […] Four cohorts were evaluated: SHAM saline, SHAM caffeine, CLP saline, CLP caffeine. […]
(§3) Cardiac ventricles were harvested and homogenized in ice-cold H medium (70 mM sucrose, 220 mM mannitol, 2.5 mM Hepes, pH 7.4 and 2 mM EDTA). […] Pellets were again resuspended in H medium and mitochondrial protein concentration determined using the method of Lowry.
10 μg samples of mitochondrial protein were subjected to SDS-acrylamide gel electrophoresis and immunoblotting. […] The signal was detected with enhanced chemiluminescence (ECL; Amersham Pharmacia Biotech, Piscataway, N.J., USA), and density was measured using scanning densitometry. Five animals per group per experiment were evaluated.

[3] = biological target: T1, cytochrome oxidase (CcOX) (Rattus norvegicus, UniProt P05503); assay: Myocardial cytochrome oxidase steady-state kinetic activity in isolated cardiac mitochondria after CLP or sham operation; assay type: in vivo
T1 construct: from tissue; host or cells: mitochondria isolated from cardiac ventricles of Sprague-Dawley rats
Protocol: as §1, §2, §3
CcOX kinetics were assayed by the method of Smith in which the rate of oxidation of ferrocytochrome c was measured by following the decrease in absorbance at 550 nm. […] Specific activity was calculated from mean values of three to four measurements using 21.1 mM−cm^−1 as the extinction coefficient of ferrocytochrome c at 550 nm. […]

[4] = CLP caffeine, 12 mL/g-min coronary flow, compared to saline injected sham values (so in the source)
[5] = CLP caffeine, toward saline injected sham values, most flow rates
[6] = sham caffeine vs both CLP groups, all coronary flow rates
[7] = sham caffeine vs saline injected sham, highest flow rates

## Cn1c(=O)c2c(ncn2C)n(C)c1=O [caffeine]
Isolated rat heart; CLP caffeine vs CLP saline
  coronary resistance: significantly increased
Isolated rat heart; CLP caffeine vs CLP saline, 12 mL/g-min coronary flow
  coronary perfusion pressure: significantly increased
Isolated rat heart; CLP caffeine vs CLP saline, all flow rates greater than 4 mL/g-min
  left ventricular pressure (LVP): significantly improved
Isolated rat heart; CLP caffeine vs saline injected sham, flow rates except 12 mL/g-min
  left ventricular pressure (LVP): approached saline injected sham values
Isolated rat heart; CLP caffeine vs sham cohorts, 12 mL/g-min coronary flow
  left ventricular pressure (LVP): significantly lower than both sham cohorts
Isolated rat heart; CLP caffeine vs sham controls, almost all coronary flow rates
  coronary perfusion pressure: significant reductions
Isolated rat heart; [4]
  myocardial oxygen consumption: significantly increased
  myocardial oxygen extraction: significantly increased
Isolated rat heart; CLP caffeine
  heart rate: 262+/−11 bpm
Isolated rat heart; [5]
  +dP/dt: significantly improved
  −dP/dt: significantly improved
Isolated rat heart; sham caffeine vs all other groups, highest coronary flow rates
  left ventricular pressure (LVP): significantly increased
Isolated rat heart; sham caffeine vs both CLP cohorts, 12 mL/g-min coronary flow
  myocardial oxygen consumption: significantly increased
Isolated rat heart; [6]
  +dP/dt: significantly increased
  −dP/dt: significantly increased
Isolated rat heart; [7]
  +dP/dt: significantly increased
  −dP/dt: significantly increased
Isolated rat heart; sham caffeine vs sham saline
  coronary resistance: significantly decreased
Isolated rat heart; sham caffeine vs sham saline, highest flow rate
  coronary perfusion pressure: significantly reduced
Isolated rat heart; sham caffeine
  heart rate: 276+/−11 bpm
[1]; CLP, caffeine 7.5 mg/kg i.p. daily from 24 hours, 48 hours
  animals survived to 48 hours: Eighty
[1]; CLP, caffeine 7.5 mg/kg i.p. daily from 24 hours, 72 hours
  animals survived to 72 hours: 55%
[1]; CLP, caffeine 7.5 mg/kg i.p. daily from 24 hours, 96 hours
  animals survived to 96 hours: 40%
[1]; sham operation, caffeine 7.5 mg/kg i.p. daily, to 96 hours
  mortality: no mortality
[2]
  steady-state myocardial CcOX I levels: no significant difference
[3]; CLP rats, 48 hours, caffeine 7.5 mg/kg i.p. at 24 and 48 hours, vs sham
  myocardial CcOX kinetic activity normalized to citrate synthase activity: restored CcOX kinetic activity in CLP rats to sham values
[3]; sham animals, caffeine injected vs saline injected
  myocardial CcOX kinetic activity normalized to citrate synthase activity: no significant difference

Source: patent US9155741B2, “Methods of using a methylxanthine compound” (The Trustees of the University of Pennsylvania, priority 2008, dated 2015)
